Holding throughout (type): cell-based, human
One data set relates to E-selectin. Put plainly: TNF-α induced E-selectin mRNA in HAEC (Northern blot). The protocol:
(§1) Cell culture and treatment of HAEC: Human aortic endothelial cells (HAEC; Cambrex Bio Science Walkersville, Inc., Walkersville, Md.) are cultured in M199 supplemented with 8% FBS, 100 μg/ml heparin, 10 ng/ml endothelial growth factor, 100 μg/ml hypothalamus extract, 2 mM L-glutamine, 1% non-essential amino acids, 100 units/ml penicillin and 100 μg/ml streptomycin. HAEC are subcultured on gelatin pre-coated: 96-well tissue culture plates (Corning Incorporated; Corning, N.Y.) for viability assays and ELISA; 100-mm tissue culture dishes (BD Falcon; Franklin Lakes, N.J.) for Northern blot analyses, Western blot analyses and EMSA; 35-mm tissue culture dishes (Corning) for adhesion assays and on 24-well tissue culture plates for luciferase promoter assays (BD Falcon). All experiments are performed with confluent HAEC monolayers. Unless noted otherwise, HAEC are treated with 25 ng/ml TNF-α, in the absence or presence of C-10 or 0.25% DMSO (carrier control for C-10), for 2-24 hrs. The concentration of DMSO is held constant at 0.25% (unless indicated otherwise) for all of the C-10 conditions.
HAEC are washed with PBS and total RNA extracted using a commercial kit (RNeasy Mini Kit; Qiagen Inc.; Valencia, Calif.). 12 μg of total RNA per lane is resolved on 1% denaturing agarose gels containing 0.66M formaldehyde. […]

Data set [1] concerns IRF-1. Briefly: TNF-alpha-induced IRF-1 RNA levels (Northern blot). The note with it: for % INIHIBITION of TNF-alpha-induced IRF-1 RNA levels: mean ± SD. The protocol: as §1
HAEC are washed with PBS and total RNA extracted using a commercial kit (RNeasy Mini Kit; Qiagen Inc.; Valencia, Calif.). 12 μg of total RNA per lane is resolved on 1% denaturing agarose gels containing 0.66M formaldehyde. Gels are capillary blotted on Nytran membranes (Schleicher and Schuell Inc.; Keene, N.H.), UV cross-linked, and used for hybridization. The probe for IRF-1 has been previously described (33). The G3PDH cDNA is from Clontech (Palo Alto, Calif.). […]; cDNAs are labeled with α-^32P-dCTP using the Ladderman Labeling Kit (Takara Biochemical Inc.; Berkeley, Calif.) (33). Northern blots are developed using a BAS 1500 Bioimaging Analyzer (Fuji Photo Film Co., Ltd. Medical Systems USA Inc.; Stanford, Calif.). Each experiment is replicated at least twice.

For another data set, the system named is HAEC. Put plainly: HAEC viability (MTS assay and visual inspection). The note with it: concentrations used in this study. The protocol: as §1
For orientation: Tetrazolium assays rely on reduction of a dye to a coloured formazan, in cell work by metabolically active cells.

In another data set the test system is NF-κB. Put plainly: EMSA of TNF-α induced NF-κB binding activity to VCAM-1 promoter. The note with it: 0.5 mM; 2 hr. TNF-α; HAEC nuclear extract. The protocol:
(§2) Nuclear Extracts and EMSA: Nuclear extracts are prepared from harvested HAEC using NE-PER® extraction reagents (Pierce Chemical Co.; Rockford, Ill.) in the presence of a protease inhibitor cocktail (PMSF, Leupeptin, Pepstatin-A). Oligonucleotides (Biosynthesis Inc.; Lewisville, Tex.) are annealed and precipitated double stranded oligonucleotides end labeled with γ-^32P-ATP using T4 polynucleotide kinase enzyme. Binding reactions (20 min., room temperature) included ^32P-labeled probe (activity 100,000 cpm), 3-6 μg HAEC nuclear extract, 1 μg poly(dI-dC), 1 mM DTT, 10% glycerol and 1× binding buffer. Binding buffer (10×) for NF-κB EMSA is 200 mM HEPES-KOH (pH7.9), 340 mM KCl, 50 mM MgCl2, 5 mM EDTA (pH 8.0), 1% Triton X-100. Binding buffer (10×) for IRF-1 EMSA is 100 mM Tris-HCL (pH 7.5), 500 mM NaCl, 50 mM MgCl2, 10 mM EDTA (pH 8.0). In competition studies, nuclear extracts are incubated with 100 fold molar excess of unlabeled double stranded oligonucleotide. In supershift studies, nuclear extracts are incubated with 2 μg of appropriate antibodies. After the incubations, reaction mixtures are electrophoresed (160V, room temperature) on 5% non-denaturing polyacrylamide gels containing 5% glycerol in 1×TBE (50 mM Tris, 50 mM boric acid, and 1 mM EDTA). Gels are dried and autoradiographed. Each experiment is replicated at least twice. […]

Data set [2] has as its system IRF-1. Put plainly: EMSA of TNF-α induced IRF-1 binding activity to VCAM-1 promoter. The note with it: 0.5 mM and 1 mM; 2 hr. TNF-α; HAEC nuclear extract. On the procedure:
as §2

The text below walks through data of patent US20050209295A1, “Methimazole derivatives and tautomeric cyclic thiones to inhibit cell adhesion” (priority 2004, published 2005).

Consider `Cn1c(-c2ccccc2)cnc1S` [5-Phenylmethimazole], for which, in the data set on E-selectin (2 hr. TNF-α), the “effect on TNF-α induced E-selectin mRNA expression” value was “marginal effect”. Besides, in the data set with E-selectin (24 hr. TNF-α), the “effect on TNF-α induced E-selectin mRNA” value is “reduced, in a dose dependent manner”. The “effect on TNF-α induced IRF-1 mRNA expression in HAEC” value with IRF-1 [1] (0.5 mM or 1 mM, 2 hr. TNF-α) is recorded as “reduces”. For the same molecule, the results for the “% INIHIBITION of TNF-alpha-induced IRF-1 RNA levels” value in the data set on IRF-1 [1] (5 mM), in the data set with IRF-1 [1] (10 :M) and with IRF-1 [1] (100 :M) were 95 ± 15%, 65 ± 16% and 90 ± 17%, respectively. Also, the “effect on HAEC viability” value with HAEC is recorded as “little to no effect”. Besides, the “effect on TNF-α dependent NF-κB complex formation (EMSA)” value in the data set on NF-κB is given as “no effect”. The “effect on formation of TNF-α induced IRF-1 complex (EMSA)” value in the data set with IRF-1 [2] is listed as “inhibits”.
